# Measured values: PubChem BioAssay AID1845196 (Molecular Pharmacology Branch, DTP, NCI, 2023)
# pIC50: −log10 of the molar value.
# Tested on: 292921-168-R tumor spheroid viability
# Assay: Anticancer human tumor 292921-168-R patient-derived pancreatic carcinoma cell line growth inhibition
# Settings: spheroids with HUVEC and MSC; for pIC50: curve of first compound; for viability, T/C: stronger effect = lower value
# Outline: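 Single agents and combinations were tested on spheroids built from tumor cells plus HUVEC and hMSC, at half-log dilutions starting at or near clinical Cmax, else 10 microM; final DMSO 0.25% (v/v).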
# [1] = second compound 1 µM, first compound 0.0316 µM
# [2] = second compound 1 µM, first compound 0.1 µM
# [3] = second compound 1 µM, first compound 0.316 µM
# [4] = second compound 1 µM, first compound 1 µM
# [5] = second compound 1 µM, first compound 3.16 µM
# [6] = second compound 1 µM, first compound 10 µM
# [7] = second compound 3.16 µM, first compound 0.0316 µM
# [8] = second compound 3.16 µM, first compound 0.1 µM
# [9] = second compound 3.16 µM, first compound 0.316 µM
# [10] = second compound 3.16 µM, first compound 1 µM
# [11] = second compound 3.16 µM, first compound 3.16 µM
# [12] = second compound 3.16 µM, first compound 10 µM
# [13] = second compound 10 µM, first compound 0.0316 µM
# [14] = second compound 10 µM, first compound 0.1 µM
# [15] = second compound 10 µM, first compound 0.316 µM
# [16] = second compound 10 µM, first compound 1 µM
# [17] = second compound 10 µM, first compound 3.16 µM
# [18] = second compound 10 µM, first compound 10 µM
# [19] = second compound 31.6 µM, first compound 0.0316 µM
# [20] = second compound 31.6 µM, first compound 0.1 µM
# [21] = second compound 31.6 µM, first compound 0.316 µM
# [22] = second compound 31.6 µM, first compound 1 µM
# [23] = second compound 31.6 µM, first compound 3.16 µM
# [24] = second compound 31.6 µM, first compound 10 µM
# [25] = second compound 100 µM, first compound 0.0316 µM
# [26] = second compound 100 µM, first compound 0.1 µM
# [27] = second compound 100 µM, first compound 0.316 µM
# [28] = second compound 100 µM, first compound 1 µM
# [29] = second compound 100 µM, first compound 3.16 µM
# [30] = second compound 100 µM, first compound 10 µM
# 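Also: spheroids exposed to compounds for 7 days.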
structure (smiles),measurement,setting,value
Cc1cc(C)c(CNC(=O)c2cc(-c3ccc(CN4CCOCC4)cc3)cc3c2cnn3C2CCCC2)c(=O)[nH]1 + Cn1nnc2c(C(N)=O)ncn2c1=O,pIC50,second compound 1 µM,< 5.00
same,pIC50,second compound 3.16 µM,< 5.00
same,pIC50,second compound 10 µM,< 5.00
same,pIC50,second compound 31.6 µM,< 5.00
same,pIC50,second compound 100 µM,< 5.00
same,"viability, T/C",[1],91.6%
same,"viability, T/C",[2],92.7%
same,"viability, T/C",[3],97.4%
same,"viability, T/C",[4],86.6%
same,"viability, T/C",[5],78.7%
same,"viability, T/C",[6],54.3%
same,"viability, T/C",[7],94.2%
same,"viability, T/C",[8],96.6%
same,"viability, T/C",[9],94.9%
same,"viability, T/C",[10],92.4%
same,"viability, T/C",[11],85.2%
same,"viability, T/C",[12],60.4%
same,"viability, T/C",[13],86.8%
same,"viability, T/C",[14],94.4%
same,"viability, T/C",[15],96%
same,"viability, T/C",[16],92.5%
same,"viability, T/C",[17],83.7%
same,"viability, T/C",[18],56.1%
same,"viability, T/C",[19],88.5%
same,"viability, T/C",[20],86.4%
same,"viability, T/C",[21],83.5%
same,"viability, T/C",[22],92.5%
same,"viability, T/C",[23],85.7%
same,"viability, T/C",[24],51.1%
same,"viability, T/C",[25],83.5%
same,"viability, T/C",[26],87.2%
same,"viability, T/C",[27],83.5%
same,"viability, T/C",[28],77.2%
same,"viability, T/C",[29],79.1%
same,"viability, T/C",[30],52.5%
Cc1sc2c(c1C)C(c1ccc(Cl)cc1)=NC(CC(=O)Nc1ccc(O)cc1)c1nnc(C)n1-2 (stereo not given) + Cn1nnc2c(C(N)=O)ncn2c1=O,pIC50,second compound 1 µM,5.61
same,pIC50,second compound 3.16 µM,5.70
same,pIC50,second compound 10 µM,5.72
same,pIC50,second compound 31.6 µM,5.77
same,pIC50,second compound 100 µM,6.04
same,"viability, T/C","second compound 1 µM, first compound 0.00949 µM",109%
same,"viability, T/C","second compound 1 µM, first compound 0.03 µM",111%
same,"viability, T/C","second compound 1 µM, first compound 0.0949 µM",117%
same,"viability, T/C","second compound 1 µM, first compound 0.3 µM",99.9%
same,"viability, T/C","second compound 1 µM, first compound 0.949 µM",74.6%
same,"viability, T/C","second compound 1 µM, first compound 3 µM",44.5%
same,"viability, T/C","second compound 3.16 µM, first compound 0.00949 µM",109%
same,"viability, T/C","second compound 3.16 µM, first compound 0.03 µM",117%
same,"viability, T/C","second compound 3.16 µM, first compound 0.0949 µM",113%
same,"viability, T/C","second compound 3.16 µM, first compound 0.3 µM",111%
same,"viability, T/C","second compound 3.16 µM, first compound 0.949 µM",68.9%
same,"viability, T/C","second compound 3.16 µM, first compound 3 µM",39.2%
same,"viability, T/C","second compound 10 µM, first compound 0.00949 µM",112%
same,"viability, T/C","second compound 10 µM, first compound 0.03 µM",115%
same,"viability, T/C","second compound 10 µM, first compound 0.0949 µM",111%
same,"viability, T/C","second compound 10 µM, first compound 0.3 µM",89%
same,"viability, T/C","second compound 10 µM, first compound 0.949 µM",77.3%
same,"viability, T/C","second compound 10 µM, first compound 3 µM",33.9%
same,"viability, T/C","second compound 31.6 µM, first compound 0.00949 µM",107%
same,"viability, T/C","second compound 31.6 µM, first compound 0.03 µM",114%
same,"viability, T/C","second compound 31.6 µM, first compound 0.0949 µM",109%
same,"viability, T/C","second compound 31.6 µM, first compound 0.3 µM",102%
same,"viability, T/C","second compound 31.6 µM, first compound 0.949 µM",67.4%
same,"viability, T/C","second compound 31.6 µM, first compound 3 µM",32.9%
same,"viability, T/C","second compound 100 µM, first compound 0.00949 µM",90.3%
same,"viability, T/C","second compound 100 µM, first compound 0.03 µM",106%
same,"viability, T/C","second compound 100 µM, first compound 0.0949 µM",95.3%
same,"viability, T/C","second compound 100 µM, first compound 0.3 µM",89.1%
same,"viability, T/C","second compound 100 µM, first compound 0.949 µM",48.3%
same,"viability, T/C","second compound 100 µM, first compound 3 µM",16.1%
[2H]c1nc(C)nc([2H])c1-c1cc(NC[C@@H](C)c2cccc3c(C(=O)NC)ccnc23)ncn1 + Cn1nnc2c(C(N)=O)ncn2c1=O,pIC50,second compound 1 µM,< 5.00
same,pIC50,second compound 3.16 µM,< 5.00
same,pIC50,second compound 10 µM,< 5.00
same,pIC50,second compound 31.6 µM,< 5.00
same,pIC50,second compound 100 µM,< 5.00
same,"viability, T/C",[1],92.5%
same,"viability, T/C",[2],99.7%
same,"viability, T/C",[3],93.5%
same,"viability, T/C",[4],76.6%
same,"viability, T/C",[5],91.5%
same,"viability, T/C",[6],71.8%
same,"viability, T/C",[7],91%
same,"viability, T/C",[8],91.5%
same,"viability, T/C",[9],90.6%
same,"viability, T/C",[10],93.7%
same,"viability, T/C",[11],88.7%
same,"viability, T/C",[12],77.4%
same,"viability, T/C",[13],89.2%
same,"viability, T/C",[14],86.4%
same,"viability, T/C",[15],87.3%
same,"viability, T/C",[16],93.7%
same,"viability, T/C",[17],87.4%
same,"viability, T/C",[18],79.6%
same,"viability, T/C",[19],86.4%
same,"viability, T/C",[20],87.1%
same,"viability, T/C",[21],86.9%
same,"viability, T/C",[22],86.1%
same,"viability, T/C",[23],89.4%
same,"viability, T/C",[24],75.4%
same,"viability, T/C",[25],81.4%
same,"viability, T/C",[26],81.5%
same,"viability, T/C",[27],84.1%
same,"viability, T/C",[28],81.2%
same,"viability, T/C",[29],79.1%
same,"viability, T/C",[30],70.6%
